The source of these data is PubChem BioAssay (NCI).

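Step 1: Grow cells in 96-well plates. Step 2: Expose to compound for 48 hours at 5 concentrations. Step 3: Interpolate endpoints linearly; if unreached, use highest concentration. Definition used: TGI = concentration required for complete inhibition of growth.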 Where only a bound is given, the exact number is not on record here.

What all share (test): growth of human tumour cells (NCI), 48 h
For test [1], the system named is HOP-18 NSCLC.
The subject of test [2] is KM20L2 colon.
Test [3] has as its system SNB-78 CNS.
Test [4] concerns DLD-1 colon.
For test [5], the system named is RXF-631 renal.
Test [6] relates to DMS 273 small cell lung.
In test [7] the test system is LXFL 529 NSCLC.
The subject of test [8] is DMS 114 small cell lung.
Test [9] concerns XF 498 CNS.

As to `CC1(C)CC(=O)CC(=Nc2ccc([N+](=O)[O-])cc2)C1`, the TGI in test [1] was more than 100 µM; in [2] it was more than 100 µM; in test [3], more than 100 µM; in test [4], 49.6 µM; in [5], more than 100 µM; in [6] it was more than 100 µM. In addition, the TGI in test [7], in test [8] and in [9] was more than 100 µM in each case.
As to `CS(=O)(=O)c1ccc(-c2cc(-c3ccc(S(C)(=O)=O)cc3)[n+](-c3cc(-c4ccccc4)c([O-])c(-c4ccccc4)c3)c(-c3ccc(S(C)(=O)=O)cc3)c2)cc1`, the TGI in test [1], in test [2], in test [3], in test [5], in test [6] and in test [7] was more than 100 µM each time. Moreover, the TGI in test [8] and in test [9] was more than 100 µM each time.
In the case of `COC(=O)C(C(=O)Cc1ccccc1[N+](=O)[O-])C(=O)OC`, the TGI in test [1], in test [2], in test [4], in test [5], in [6] and in test [7] was more than 100 µM in each case. In test [9], this molecule registered a TGI of more than 100 µM.
Regarding `Cc1ccc(NC(=O)CCc2nnc(N)o2)cc1`, the TGI in [2] is more than 100 µM; in test [3], more than 100 µM; in test [4] it was more than 100 µM; in test [5], more than 31.6 µM; in test [6], more than 100 µM; in test [7] it was more than 100 µM. The TGI in test [8] and in [9] was more than 100 µM throughout.
As to `O=[N+]([O-])c1ccc(-c2cnc3ccccn23)cc1`, the TGI in test [2], in test [3], in test [6], in [7], in test [8] and in [9] was more than 100 µM each time.
As for `C=CN1C(=O)[C@H](Oc2ccccc2)[C@@H]1c1ccccc1`, the TGI in test [1], in test [2], in test [3], in [4], in [7] and in [8] was more than 100 µM throughout. Further, the TGI in [9] was 84 µM.
Take `Cc1nn(C(=O)CC(=O)Nc2ccc(Cl)cc2)c(C)c1N=Nc1ccccc1C(=O)O`: the TGI in test [2], in test [3], in [4], in test [6], in test [7] and in [8] was more than 100 µM throughout.
Take `CN(CCN(C)C(=O)CCn1cc(F)c(=O)[nH]c1=O)C(=O)CCn1cc(F)c(=O)[nH]c1=O`: the TGI in test [2], in test [6], in [7], in [8] and in test [9] was more than 100 µM each time.
On to `Cn1c2ccccc2c2ncc3[nH]c4ccccc4c3c21`, for which the TGI in test [2] was 36.6 µM; in [3], 57.6 µM; in [4] it was more than 100 µM; in test [5], more than 100 µM; in test [6] it was 34.7 µM; in test [7] it was 80.1 µM. The TGI in test [8] stood at 54.3 µM; in test [9], 31.8 µM.
Take `CCOC(=O)C1SC(=Nc2ccccc2)N=C1C` (centres undefined): the TGI in [1], in [2], in test [3], in test [4], in test [5] and in test [7] was more than 100 µM in each case. Also, the TGI in [8] and in [9] was more than 100 µM in each case.
As to `CCOC1c2cc(C(C)C)c(O)c(O)c2[C@@]23CCCC(C)(C)C2C1OC3=O` (some centres undefined), the TGI in test [2], in [3], in [4], in test [6], in [7] and in [8] was more than 100 µM throughout.
Regarding `C[N+](C)(C)CC1CCC/C1=N\OC(=O)c1ccccc1` (centres undefined), the TGI in test [1], in test [2], in test [3], in test [4], in test [7] and in test [8] was more than 100 µM each time. Besides, the TGI in [9] is more than 100 µM.
Regarding `COc1ccc(C(C#N)NNC(=O)Cc2ccccc2)cc1OC` (centres undefined), the TGI in [1], in test [3], in test [4], in test [6], in [7] and in test [8] was more than 100 µM in each case.
As to `COc1ccc(/C=C(\C(C)=O)C(=O)Nc2ccccc2)cc1`, the TGI in test [1], in test [3], in test [4], in test [7] and in test [8] was more than 100 µM in each case.
For `CC(Oc1ccc(OCC2CCCCC2)cc1)C(=O)OCC(=O)c1ccc(-c2ccccc2)cc1` (centres undefined), the TGI in test [1], in test [3], in test [4], in test [6], in [7] and in test [8] was more than 100 µM in each case. The molecule further gave a TGI in test [9] of more than 100 µM.
On to `Cn1cnnc1Sc1c([N+](=O)[O-])ncn1C`, for which the TGI in [1] is 82.5 µM; in [3], more than 100 µM; in [4] it was more than 100 µM; in test [5], more than 100 µM; in [6], more than 100 µM; in test [7] it was 63 µM. Moreover, the TGI in [8] and in test [9] was more than 100 µM throughout.
For `CCOC(=O)/C(=C/c1ccc(N(C)C)cc1)N(CC)CC`, the TGI in test [2], in [3], in test [7], in [8] and in test [9] was more than 100 µM in each case.
In the case of `C=C(C)C1CCC2(C)CC1c1c(c(C)cc3c1[nH]c1ccccc13)O2` (centres undefined), the TGI in test [2], in test [4], in test [6], in [7], in test [8] and in [9] was more than 25 µM in each case.
Regarding `COc1cc2c3c(c1OC)-c1cc4c(cc1CC3(C#N)N(C(=O)c1ccccc1)CC2)OCO4` (centres undefined), the TGI in test [1] is 93.2 µM; in test [2] it was more than 100 µM; in [3] it was 42.6 µM; in test [4] it was more than 100 µM; in test [6], more than 79.4 µM; in [7], 56.3 µM. Moreover, the TGI in test [8] is more than 85.1 µM; in [9], 24.8 µM.
Take `COC(=O)[C@@]1(C)/C(=N/NS(=O)(=O)c2ccc(C)cc2)CCC[C@@H]1C`: the TGI was more than 100 µM in test [1]; more than 100 µM in [2]; more than 100 µM in [3]; more than 100 µM in [4]; more than 100 µM in test [7]; 45 µM in test [8].
For `CC(C)=CC1CC(=[N+]=[N-])C(=O)C1(C)C` (centres undefined), the TGI in test [1], in [2], in [3], in [4], in [7] and in [8] was more than 100 µM each time. Further, the TGI in test [9] is more than 100 µM.
As to `COc1ccc(OC)c(/C=C(/C#N)c2ccccc2)c1`, the TGI is more than 100 µM in test [1]; more than 100 µM in test [2]; more than 100 µM in test [4]; 24.5 µM in test [6]; more than 100 µM in test [7].
Take `O=C(CSc1c2ccccc2nc2ccccc12)Nc1ccccc1-c1ccccc1NC(=O)CSc1c2ccccc2nc2ccccc12`: the TGI is more than 100 µM in test [1]; more than 100 µM in [2]; 92.2 µM in [3]; 33.4 µM in test [4]; more than 100 µM in [6]; 25.9 µM in test [7]. For the same molecule, the TGI stood at 46.8 µM in test [8] and 46.2 µM in test [9].
Regarding `C=CCC1(CN(C)C)CC/C(=C\c2ccc(Cl)cc2)C1=O` (centres undefined), the TGI in test [1] was more than 100 µM; in [2], more than 67.4 µM; in [3] it was more than 72 µM; in test [4], more than 94.4 µM; in [6], more than 59.1 µM; in [7] it was more than 74.8 µM. Besides, the TGI in test [8] is more than 72.2 µM; in test [9], more than 100 µM.
